Test: Inhibition of Src-transfected 3T3 cell proliferation

Row | Compound | IC50
1 | COc1ccc(Cl)c(Nc2ncnc3cc(OCCN4CCOCC4)cc(OC(C)C)c23)n1 [N-(3-chloro-6-methoxypyridin-2-yl)-5-isopropoxy-7-(2-morpholinoethoxy)quinazolin-4-amine] | 120 nM
2 | COc1ccc(Cl)c(Nc2ncnc3cc(OCCN4CCN(C(C)=O)CC4)cc(OC(C)C)c23)n1 [1-(4-(2-(4-(3-chloro-6-methoxypyridin-2-ylamino)-5-isopropoxyquinazolin-7-yloxy)ethyl)piperazin-1-yl)ethanone] | 60 nM
3 | COc1cc(Nc2ncnc3cc(OCCCN4CCOCC4)cc(OC(C)C)c23)c(Cl)cn1 [N-(5-chloro-2-methoxypyridin-4-yl)-5-isopropoxy-7-(3-morpholinopropoxy)quinazolin-4-amine] | 350 nM
4 | COc1cnc(Cl)c(Nc2ncnc3cc(OCCCN4CCOCC4)cc(OC(C)C)c23)c1 [N-(2-chloro-5-methoxypyridin-3-yl)-5-isopropoxy-7-(3-morpholinopropoxy)quinazolin-4-amine] | 150 nM
5 | COc1ccc(Cl)c(Nc2ncnc3cc(OCCCN4CCN(C)CC4)cc(OC(C)C)c23)n1 [N-(3-chloro-6-methoxypyridin-2-yl)-5-isopropoxy-7-(3-(4-methylpiperazin-1-yl)propoxy)quinazolin-4-amine] | 60 nM
6 | COc1ccc(Cl)c(Nc2ncnc3cc(OCCCN4CCCC4)cc(OC(C)C)c23)n1 [N-(3-chloro-6-methoxypyridin-2-yl)-5-isopropoxy-7-(3-(pyrrolidin-1-yl)propoxy)quinazolin-4-amine] | 70 nM
7 | COc1cnc(Cl)c(Nc2ncnc3cc(OCCCN4CCOCC4)cc(OC4CCOCC4)c23)c1 [N-(2-chloro-5-methoxypyridin-3-yl)-7-(3-morpholinopropoxy)-5-(tetrahydro-2H-pyran-4-yloxy)quinazolin-4-amine] | 140 nM
8 | COc1ccc(Cl)c(Nc2ncnc3cc(OCCCN4CCOCC4)cc(OC4CCOCC4)c23)n1 [N-(3-chloro-6-methoxypyridin-2-yl)-7-(3-morpholinopropoxy)-5-(tetrahydro-2H-pyran-4-yloxy)quinazolin-4-amine] | 70 nM
9 | COc1ccc(Cl)c(Nc2ncnc3cc(OCCCN4CCOCC4)cc(OC(C)C)c23)n1 [N-(3-chloro-6-methoxypyridin-2-yl)-5-isopropoxy-7-(3-morpholinopropoxy)quinazolin-4-amine] | 30 nM
10 | COc1ccc(Cl)c(Nc2ncnc3cc(OCCCN4CCOCC4)cc(OC(C)C)c23)c1 [N-(2-chloro-5-methoxyphenyl)-7-[3-(morpholin-4-yl)propoxy]-5-(propan-2-yloxy)quinazolin-4-amine] | 150 nM
11 | COc1ccc(Cl)c(Nc2ncnc3cc(OCCN4CCCC4)cc(OC(C)C)c23)n1 [N-(3-chloro-6-methoxypyridin-2-yl)-5-isopropoxy-7-(2-(pyrrolidin-1-yl)ethoxy)quinazolin-4-amine] | 120 nM
12 | COc1ccc(Cl)c(Nc2ncnc3cc(OCCCN4CCN(C(C)=O)CC4)cc(OC(C)C)c23)n1 [1-(4-(3-(4-(3-chloro-6-methoxypyridin-2-ylamino)-5-isopropoxyquinazolin-7-yloxy)propyl)piperazin-1-yl)ethanone] | 20 nM
13 | COc1cnc(Cl)c(Nc2ncnc3cc(OCCN4CCN(C(C)=O)CC4)cc(OC(C)C)c23)n1 [1-(4-(2-(4-(3-chloro-6-methoxypyrazin-2-ylamino)-5-isopropoxyquinazolin-7-yloxy)ethyl)piperazin-1-yl)ethanone] | 70 nM

— BindingDB's records for doi:10.1016/j.bmcl.2005.08.106 (Astrazeneca, 2005)
